According to article PMC11990103, “Anticancer Activity and Safety Profile of Novel 1-(4-Fluorophenoxyacetyl)-4-substituted Thio/Semicarbazide Derivatives” (Molecules, 2025):

Tests used:
Assay type in all cases: cell-based, human
G-361 melanoma cells = assay: Cell cycle analysis by image cytometry (NucleoCounter NC-3000); conditions: G-361, 48 h, AB2 at concentration corresponding to IC50
Description: (§1) To further evaluate the anticancer activity of thiosemicarbazide derivative AB2 in G-361 and LNCaP cell lines, cell cycle analysis by image cytometry and detection of apoptosis using annexin V and propidium iodide was performed. Analyses of the action of AB2 on the distribution of cells in different phases of the cell cycle indicated a significant increase in the population of cells in the sub-G1 phase compared to the control cultures, in both tested prostate and melanoma cells. This population increased from 7% and 5% in control cells to 26% and 27% after exposure to AB2 in LNCaP and G-361 cells, respectively (Figure 8A). The increase in the cell population in the sub-G1 phase indicates the presence of apoptosis or necrosis in the investigated cells and not a significant inhibition of cell proliferation, i.e., a cytostatic effect.
(§2) Cell cycle analysis was assessed with the NucleoCounter NC-3000 (ChemoMetec, Allerod, Denmark) following the 2-Step Cell Cycle Assay protocol recommended by the manufacturer. The research was performed after 48 h incubation of prostate cancer cells (LNCaP) and melanoma cells (G-361) with AB2 compound in a concentration corresponding to IC50 value. Analysis was performed in line with the previously described methodology.

[1] = tested on: LNCaP prostate cancer cells; assay: as above; conditions: 48 h, AB2 at concentration corresponding to IC50
Description: as §1, §2

G-361 melanoma cell line = assay: qRT-PCR relative gene expression; conditions: G-361, 24 h, concentration corresponding to IC50
Description: (§3) An analysis was conducted to examine the impact of the thiosemicarbazide AB2 on LNCaP prostate cancer cells and G-361 melanoma cells, focusing on the expression of genes associated with oxidative stress, cell cycle regulation, DNA repair, and apoptosis. Superoxide dismutase (SOD2), catalase (CAT), and glutathione peroxidase 1 (GPX1) are critical antioxidant enzymes that protect cells from oxidative stress by neutralizing reactive oxygen species (ROS) and mitigating potential cellular damage. […] This indicates heightened activation of cell cycle arrest mechanisms, given that p21 acts as an important inhibitor of cyclin-dependent kinases essential for cell cycle progression. […] The contrasting alterations in CDKN1A and CYCD indicate a transition toward cell cycle arrest in response to AB2 (Figure 9B). The next assessed panel of genes includes those involved in DNA damage sensing and repair, specifically ATM and ATR. ATM and ATR are fundamental components of the DNA damage response, responsible for the detection and repair of double-strand and single-strand DNA breaks, respectively.
(§4) The last assessed panel of genes includes genes involved in the process of apoptosis. BAX is a protein that enhances apoptosis, a natural to eliminate damaged or cancer cells. On the other hand, BCL-2 prevents apoptosis, helping cancer cells survive and resist therapy. […] The decrease in BCL-2 expression, along with stable BAX levels, led to a higher BAX/BCL-2 ratio in comparison to the control.
(§5) The relative gene expression was quantitatively assessed using real-time PCR. […] Next, for cell lysis the 1 mL of TRIzol™ reagent (Invitrogen, Carlsbad, CA, USA) was added. RNA was isolated according to the Chomczynski and Sacchi method. The RNA was reverse transcribed using NG dART RT-PCR reagents (EURx, Gdańsk, Poland) according to the manufacturer’s instructions. Following the manufacturer’s recommendation, the qPCR reaction was conducted in triplicate in a 7500 fast real-time PCR machine (ThermoFisher, Waltham, MA, USA) using Fast SG/ROX qPCR Master Mix (2×) (EURx, Gdansk, Poland). 18SRNA and BACT were used as reference genes. Gene expression was evaluated using qRT-PCR and ΔΔCt. Statistical analysis was conducted using RQ values (RQ = […]).

[2] = tested on: LNCaP prostate cancer cell line; assay: qRT-PCR relative gene expression; conditions: 24 h, concentration corresponding to IC50
Description: as §3, §4, §5

O=C(COc1ccc(F)cc1)NNC(=S)Nc1ccccc1Cl [AB2]
cells in sub-G1 phase (M1) (G-361 melanoma cells): 27%
cells in sub-G1 phase (M1) [1]: 26%
ATM gene expression (G-361 melanoma cell line): downregulated
ATR gene expression (G-361 melanoma cell line): downregulated
BAX gene expression (G-361 melanoma cell line): did not differ from the control cultures
BAX/BCL-2 ratio in comparison to the control (G-361 melanoma cell line): higher
BCL-2 gene expression (G-361 melanoma cell line): significantly downregulated
CAT gene expression, increase (G-361 melanoma cell line): approximately 8 fold
CDKN1A (p21) gene expression (G-361 melanoma cell line): significantly upregulated
CYCD (cyclin D) gene expression (G-361 melanoma cell line): notably downregulated
GPX1 gene expression (G-361 melanoma cell line): moderate but significant rise
SOD2 gene expression, rise compared to control (G-361 melanoma cell line): > 100 fold
TP53 gene expression (G-361 melanoma cell line): significant downregulation
ATM gene expression [2]: downregulated
ATR gene expression [2]: downregulated
BAX gene expression [2]: did not differ from the control cultures
BAX/BCL-2 ratio in comparison to the control [2]: higher
BCL-2 gene expression [2]: significantly downregulated
CAT gene expression, increase [2]: ~6 fold
CDKN1A (p21) gene expression [2]: significantly upregulated
CYCD (cyclin D) gene expression [2]: notably downregulated
GPX1 gene expression [2]: moderate but significant rise
SOD2 gene expression, increase compared to control [2]: > 20 fold
TP53 gene expression [2]: significant downregulation
